Literature values, collected in patent US20250268985A1, “BCL2 INHIBITOR AND PEPTIDE COMBINATION THERAPY FOR TREATING PROLIFERATIVE DISEASES” (IMMUNE SYSTEM KEY LTD., priority 2022, published 2025).

bioavailability after oral administration: not bioavailable
Compound: CN(C)CC[C@H](CSc1ccccc1)Nc1ccc(S(=O)(=O)NC(=O)c2ccc(N3CCN(Cc4ccccc4-c4ccc(Cl)cc4)CC3)cc2)cc1[N+](=O)[O-] [ABT-737, 4-{4-[(4′-Chloro[1,1′-biphenyl]-2-yl)methyl]piperazin-1-yl}-N-(4-{[(2R)-4-(dimethylamino)-1-(phenylsulfanyl)butan-2-yl]ami-no}-3-nitrobenzene-1-sulfonyl)benzamide]
